This note sets out measurements from patent US20150031675A1, “DIAZABICYCLO[3.3.1]NONANES, METHODS OF SYNTHESIS, AND USES THEREOF” (Targacept, Inc., priority 2012, published 2015).

As usually defined, the Ki is the equilibrium dissociation constant of an inhibitor or competing ligand from its target.

The target in the first assay is Human α7 nAChR (UniProt P36544). Description: Radioligand binding ([3H]MLA) at α7 nAChR. The following applies: competition with 5 nM [3H]MLA; Ki by Cheng-Prusoff; read-out: Human α7 Ki.
For the molecule `c1cncc(N2CC3CC(C2)CN(C2CN4CCC2CC4)C3)c1` (centres unmarked), the Ki worked out at 510 nM.
`c1cncc(N2CC3CC(C2)CN(C2CCNCC2)C3)c1`: the Ki amounted to 790 nM.
In the case of `c1cncc(N2CC3CC(C2)CN(C2CNC2)C3)c1`, the Ki came out at 550 nM.
As to `CN1CCC(N2CC3CC(CN(c4cccnc4)C3)C2)C1` (centres unmarked), the Ki turned out to be 790 nM.

Still in this assay, the particulars now being: read-out: Human α7 Ki; competition with 5 nM [3H]MLA; Ki by Cheng-Prusoff.
For the molecule `c1cncc(N2CC3CC(C2)CN(C2CCCNC2)C3)c1` (centres unmarked), the inhibition constant (Ki) amounted to 62 nM.
Same read-out and setting: with `c1cncc(N2CC3CC(C2)CN(C2CCNC2)C3)c1` (centres unmarked) the figure was 24 nM; with `c1cncc(N2CC3CC(C2)CN(C2CCCNCC2)C3)c1` (centres unmarked), 20 nM.

The target in another assay is T1, Human α4β2 nAChR (Homo sapiens, UniProt P17787+P43681).
T1 construct: expressed in transfected cells; host or cells: SH-EP1 clonal cells expressing human α4β2
T1 sequence (P43681 29-627 limits assumed): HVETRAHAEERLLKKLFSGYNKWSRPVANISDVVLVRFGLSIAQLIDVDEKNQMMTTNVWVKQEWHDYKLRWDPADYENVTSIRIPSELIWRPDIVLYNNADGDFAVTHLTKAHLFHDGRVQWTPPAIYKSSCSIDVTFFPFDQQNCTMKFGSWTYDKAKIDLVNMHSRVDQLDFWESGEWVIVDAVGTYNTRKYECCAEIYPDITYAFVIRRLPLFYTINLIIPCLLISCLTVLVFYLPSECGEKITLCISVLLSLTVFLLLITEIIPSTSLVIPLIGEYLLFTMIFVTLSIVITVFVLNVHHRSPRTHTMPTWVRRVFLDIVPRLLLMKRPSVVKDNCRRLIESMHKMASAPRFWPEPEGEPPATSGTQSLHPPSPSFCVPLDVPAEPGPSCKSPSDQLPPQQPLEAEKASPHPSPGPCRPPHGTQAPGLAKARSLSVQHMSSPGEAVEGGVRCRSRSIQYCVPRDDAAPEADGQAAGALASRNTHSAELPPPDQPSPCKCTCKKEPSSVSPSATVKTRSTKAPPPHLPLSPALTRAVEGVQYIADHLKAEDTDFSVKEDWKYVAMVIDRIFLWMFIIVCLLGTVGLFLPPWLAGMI
T1 sequence (P17787 26-502): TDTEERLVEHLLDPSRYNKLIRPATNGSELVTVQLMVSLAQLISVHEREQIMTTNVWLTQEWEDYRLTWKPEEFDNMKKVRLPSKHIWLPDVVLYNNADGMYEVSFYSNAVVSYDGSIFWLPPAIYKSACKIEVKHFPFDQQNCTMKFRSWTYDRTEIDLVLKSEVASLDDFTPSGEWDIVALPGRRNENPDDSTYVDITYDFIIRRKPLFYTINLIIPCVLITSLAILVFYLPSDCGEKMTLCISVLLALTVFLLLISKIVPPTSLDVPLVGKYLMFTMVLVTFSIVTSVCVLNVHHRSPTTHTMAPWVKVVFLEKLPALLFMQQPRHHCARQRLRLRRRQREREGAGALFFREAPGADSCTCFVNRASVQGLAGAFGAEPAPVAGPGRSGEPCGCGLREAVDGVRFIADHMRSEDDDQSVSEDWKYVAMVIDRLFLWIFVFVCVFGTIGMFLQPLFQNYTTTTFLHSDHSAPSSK
Nature of the assay: Radioligand binding ([3H]nicotine) at α4β2 nAChR, membranes from SH-EP1/human α4β2 clonal cells.
Settings: not given
On the procedure:
Preparation of Membranes from SH-EP1/Human α4β2 Clonal Cells:
Cell pellets from 40 150 mm culture dishes were pooled, and homogenized by Polytron (Kinematica GmbH, Switzerland) in 20 milliliters of ice-cold preparative buffer. The homogenate was centrifuged at 48,000 g for 20 minutes at 4° C. The resulting pellet was re-suspended in 20 mL of ice-cold preparative buffer and stored at −20° C.
On the day of the assay, the frozen membranes were thawed and spun at 48,000×g for 20 min. The supernatant was decanted and discarded. The pellet was resuspended in Dulbecco's phosphate buffered saline (PBS, Life Technologies) pH 7.4 and homogenized with the Polytron for 6 seconds. Protein concentrations were determined using a Pierce BCA Protein Assay Kit, with bovine serum albumin as the standard (Pierce Chemical Company, Rockford, Ill.).
Incubation was terminated by rapid filtration on a multi-manifold tissue harvester (Brandel, Gaithersburg, Md.) using GF/B filters presoaked in 0.33% polyethyleneimine (w/v) to reduce non-specific binding. Tissue was rinsed 3 times in PBS, pH 7.4. Scintillation fluid was added to filters containing the washed tissue and allowed to equilibrate. Filters were then counted to determine radioactivity bound to the membranes by liquid scintillation counting (2200CA Tri-Carb LSC, Packard Instruments, 50% efficiency or Wallac Trilux 1450 MicroBeta, 40% efficiency, Perkin Elmer).
Data were expressed as disintegrations per minute (DPMs). Within each assay, each point had 2-3 replicates.
`c1cncc(N2CC3CC(C2)CN(C2CN4CCC2CC4)C3)c1` (centres unmarked) gave an inhibition constant Ki of 42 nM.
Consider `c1cncc(N2CC3CC(C2)CN(C2CCNCC2)C3)c1`, for which the Ki is 14 nM.
With `c1cncc(N2CC3CC(C2)CN(C2CNC2)C3)c1`, the inhibitory constant (Ki) stood at 5.8 nM.
Consider `CN1CCC(N2CC3CC(CN(c4cccnc4)C3)C2)C1` (centres unmarked), for which the inhibition constant (Ki) came to 11 nM.

Staying with this assay, now noted: read-out: Human α4β2 Ki.
On to `c1cncc(N2CC3CC(C2)CN(C2CCCNC2)C3)c1` (centres unmarked), for which the Ki was determined as 0.79 nM.
Same read-out and setting: as for `c1cncc(N2CC3CC(C2)CN(C2CCNC2)C3)c1` (centres unmarked), the figure is 0.16 nM; as for `c1cncc(N2CC3CC(C2)CN(C2CCCNCC2)C3)c1` (centres unmarked), 0.45 nM.
